{"source": "patent US9695155B2", "about": "“Herbicidal substituted pyrimidinyloxy benzene compounds” (E. I. DU PONT DE NEMOURS AND COMPANY, priority 2013, dated 2017)", "key": {"large (Lg) crabgrass": {"tested_on": "large (Lg) crabgrass", "test": "Test A preemergence", "assay_type": "in vivo, Digitaria sanguinalis", "in_short": "(§1)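 Visual 0–100 rating (100 = complete control) taken about 10 d post-treatment relative to untreated checks. Preemergence: directed soil spray on sown loam/sand pots. Postemergence: seedlings 2–10 cm, 1–2 leaf. Non-phytotoxic solvent formulation with surfactant.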"}, "pigweed [1]": {"tested_on": "pigweed", "test": "Test A preemergence", "assay_type": "in vivo, Amaranthus retroflexus", "in_short": "as §1"}, "blackgrass [2]": {"tested_on": "blackgrass", "test": "Test C preemergence", "assay_type": "in vivo, Alopecurus myosuroides", "conditions": "for Blackgrass plant response rating: preemergence", "in_short": "(§2)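 Seeds were sown in loam–sand blend and sprayed preemergence, while plants at 1- to 4-leaf stage (2–18 cm) in peat-based medium received postemergence sprays; test chemicals were formulated in a non-phytotoxic solvent with surfactant. After 13–15 days in a greenhouse, injury was rated visually against controls, 0 (no effect) to 100 (complete control).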"}, "Italian ryegrass": {"tested_on": "Italian ryegrass", "test": "Test C preemergence", "assay_type": "in vivo, Lolium multiflorum", "conditions": "for Ryegrass, Italian plant response rating: preemergence", "in_short": "as §2"}, "morningglory": {"tested_on": "morningglory", "test": "Test C preemergence", "assay_type": "in vivo, Ipomoea coccinea", "conditions": "for Morningglory plant response rating: preemergence", "in_short": "as §2"}, "yellow nutsedge [3]": {"tested_on": "yellow nutsedge", "test": "Test C preemergence", "assay_type": "in vivo, Cyperus esculentus", "conditions": "for Nutsedge, Yellow plant response rating: preemergence", "in_short": "as §2"}, "pigweed [4]": {"tested_on": "pigweed", "test": "Test C preemergence", "assay_type": "in vivo, Amaranthus retroflexus", "conditions": "for Pigweed plant response rating: preemergence", "in_short": "as §2"}, "ragweed": {"tested_on": "ragweed", "test": "Test C preemergence", "assay_type": "in vivo, Ambrosia elatior", "conditions": "for Ragweed plant response rating: preemergence", "in_short": "as §2"}, "soybean": {"tested_on": "soybean", "test": "Test C preemergence", "assay_type": "in vivo, Glycine max", "conditions": "for Soybean plant response rating: preemergence", "in_short": "as §2"}, "blackgrass [5]": {"tested_on": "blackgrass", "test": "Test C postemergence", "assay_type": "in vivo, Alopecurus myosuroides", "in_short": "as §2"}, "wheat, winter": {"tested_on": "wheat, winter", "test": "Test C postemergence", "assay_type": "in vivo, Triticum aestivum", "in_short": "as §2"}, "corn": {"tested_on": "corn", "test": "Test C postemergence", "assay_type": "in vivo, Zea mays", "in_short": "as §2"}, "giant foxtail": {"tested_on": "giant foxtail", "test": "Test C postemergence", "assay_type": "in vivo, Setaria faberii", "in_short": "as §2"}, "yellow nutsedge [6]": {"tested_on": "yellow nutsedge", "test": "Test C postemergence", "assay_type": "in vivo, Cyperus esculentus", "in_short": "as §2"}, "barnyardgrass": {"tested_on": "barnyardgrass", "test": "Test C postemergence", "assay_type": "in vivo, Echinochloa crus-galli", "in_short": "as §2"}, "wild oat": {"tested_on": "wild oat", "test": "Test C postemergence", "assay_type": "in vivo, Avena fatua", "in_short": "as §2"}, "chickweed": {"tested_on": "chickweed", "test": "Test C postemergence", "assay_type": "in vivo, Stellaria media", "in_short": "as §2"}, "[7]": {"conditions": "500 g ai/ha, 0 to 100 scale where 0 is no effect and 100 is complete control"}, "[8]": {"conditions": "16 g ai/ha, scale 0 to 100 (0 no effect, 100 complete control)"}, "[9]": {"conditions": "125 g ai/ha, scale 0 (no effect) to 100 (complete control)"}, "[10]": {"conditions": "Preemergence, 62 g ai/ha, scale 0 to 100, 0 no effect, 100 complete control"}, "[11]": {"conditions": "16 g ai/ha, postemergence, 0 is no effect, 100 is complete control"}, "[12]": {"conditions": "31 g ai/ha, postemergence, visual rating, scale 0 to 100 (0 no effect, 100 complete control), 13 to 15 days"}, "[13]": {"conditions": "125 g ai/ha, postemergence, visual rating, scale 0 to 100 (0 no effect, 100 complete control)"}, "[14]": {"conditions": "Postemergence, 62 g ai/ha, scale 0 to 100 (0 no effect, 100 complete control), 13 to 15 days"}}, "data": [{"compound": "N#Cc1cnn(-c2c(Oc3ncc(Cl)cn3)cccc2C(F)F)c1", "note": "[Compound 236]", "values": [{"measurement": "Crabgrass, Large plant response rating (0 to 100 scale)", "setting": "large (Lg) crabgrass; 125 g ai/ha", "result": 100}, {"measurement": "Crabgrass, Large plant response rating", "setting": "large (Lg) crabgrass; [7]", "result": 100}, {"measurement": "Pigweed plant response rating (0 to 100 scale)", "setting": "pigweed [1]; 125 g ai/ha", "result": 100}, {"measurement": "Pigweed plant response rating", "setting": "pigweed [1]; [7]", "result": 100}, {"measurement": "Blackgrass plant response rating", "setting": "blackgrass [2]; [8]", "result": 5}, {"measurement": "Blackgrass plant response rating", "setting": "blackgrass [2]; [9]", "result": 90}, {"measurement": "Plant response rating, Blackgrass", "setting": "blackgrass [2]; [10]", "result": 90}, {"measurement": "Ryegrass, Italian plant response rating", "setting": "Italian ryegrass; [8]", "result": 0}, {"measurement": "Ryegrass, Italian plant response rating", "setting": "Italian ryegrass; [9]", "result": 85}, {"measurement": "Plant response rating, Ryegrass, Italian", "setting": "Italian ryegrass; [10]", "result": 45}, {"measurement": "Morningglory plant response rating", "setting": "morningglory; [8]", "result": 0}, {"measurement": "Morningglory plant response rating", "setting": "morningglory; [9]", "result": 98}, {"measurement": "Plant response rating, Morningglory", "setting": "morningglory; [10]", "result": 55}, {"measurement": "Nutsedge, Yellow plant response rating", "setting": "yellow nutsedge [3]; [8]", "result": 0}, {"measurement": "Nutsedge, Yellow plant response rating", "setting": "yellow nutsedge [3]; [9]", "result": 75}, {"measurement": "Plant response rating, Nutsedge, Yellow", "setting": "yellow nutsedge [3]; [10]", "result": 60}, {"measurement": "Pigweed plant response rating", "setting": "pigweed [4]; [8]", "result": 100}, {"measurement": "Pigweed plant response rating", "setting": "pigweed [4]; [9]", "result": 100}, {"measurement": "Plant response rating, Pigweed", "setting": "pigweed [4]; [10]", "result": 100}, {"measurement": "Ragweed plant response rating", "setting": "ragweed; [8]", "result": 15}, {"measurement": "Ragweed plant response rating", "setting": "ragweed; [9]", "result": 90}, {"measurement": "Plant response rating, Ragweed", "setting": "ragweed; [10]", "result": 85}, {"measurement": "Soybean plant response rating", "setting": "soybean; [8]", "result": 35}, {"measurement": "Soybean plant response rating", "setting": "soybean; [9]", "result": 95}, {"measurement": "Plant response rating, Soybean", "setting": "soybean; [10]", "result": 90}, {"measurement": "Plant response rating (0 to 100), Blackgrass", "setting": "blackgrass [5]; [11]", "result": 0}, {"measurement": "Blackgrass plant response rating", "setting": "blackgrass [5]; [12]", "result": 5}, {"measurement": "Plant response rating, Blackgrass", "setting": "blackgrass [5]; [13]", "result": 20}, {"measurement": "Plant response rating, Blackgrass", "setting": "blackgrass [5]; [14]", "result": 5}, {"measurement": "Plant response rating (0 to 100), Wheat", "setting": "wheat, winter; [11]", "result": 0}, {"measurement": "Wheat plant response rating", "setting": "wheat, winter; [12]", "result": 0}, {"measurement": "Plant response rating, Wheat", "setting": "wheat, winter; [13]", "result": 0}, {"measurement": "Plant response rating, Wheat", "setting": "wheat, winter; [14]", "result": 0}, {"measurement": "Plant response rating (0 to 100), Corn", "setting": "corn; [11]", "result": 5}, {"measurement": "Corn plant response rating", "setting": "corn; [12]", "result": 5}, {"measurement": "Plant response rating, Corn", "setting": "corn; [13]", "result": 10}, {"measurement": "Plant response rating, Corn", "setting": "corn; [14]", "result": 5}, {"measurement": "Plant response rating (0 to 100), Foxtail, Giant", "setting": "giant foxtail; [11]", "result": 5}, {"measurement": "Foxtail, Giant plant response rating", "setting": "giant foxtail; [12]", "result": 50}, {"measurement": "Plant response rating, Foxtail, Giant", "setting": "giant foxtail; [13]", "result": 15}, {"measurement": "Plant response rating, Foxtail, Giant", "setting": "giant foxtail; [14]", "result": 15}, {"measurement": "Plant response rating (0 to 100), Nutsedge, Yellow", "setting": "yellow nutsedge [6]; [11]", "result": 0}, {"measurement": "Nutsedge, Yellow plant response rating", "setting": "yellow nutsedge [6]; [12]", "result": 0}, {"measurement": "Plant response rating, Nutsedge, Yellow", "setting": "yellow nutsedge [6]; [13]", "result": 5}, {"measurement": "Plant response rating, Nutsedge, Yellow", "setting": "yellow nutsedge [6]; [14]", "result": 0}, {"measurement": "Plant response rating (0 to 100), Barnyardgrass", "setting": "barnyardgrass; [11]", "result": 5}, {"measurement": "Barnyardgrass plant response rating", "setting": "barnyardgrass; [12]", "result": 5}, {"measurement": "Plant response rating, Barnyardgrass", "setting": "barnyardgrass; [13]", "result": 10}, {"measurement": "Plant response rating, Barnyardgrass", "setting": "barnyardgrass; Postemergence, 62 g ai/ha, scale 0 to 100 (0 no effect, 100 complete control)", "result": 5}, {"measurement": "Plant response rating (0 to 100), Oat, Wild", "setting": "wild oat; [11]", "result": 0}, {"measurement": "Oat, Wild plant response rating", "setting": "wild oat; [12]", "result": 0}, {"measurement": "Plant response rating, Oat, Wild", "setting": "wild oat; [13]", "result": 5}, {"measurement": "Plant response rating, Oat, Wild", "setting": "wild oat; [14]", "result": 5}, {"measurement": "Plant response rating (0 to 100), Chickweed", "setting": "chickweed; [11]", "result": 40}, {"measurement": "Chickweed plant response rating", "setting": "chickweed; [12]", "result": 50}, {"measurement": "Plant response rating, Chickweed", "setting": "chickweed; [13]", "result": 50}, {"measurement": "Plant response rating, Chickweed", "setting": "chickweed; [14]", "result": 65}]}]}
